From the supplement of paper PMC10307832

What was measured:
Assay in all cases: relative viability (nuclei count vs DMSO), 5 days (fraction); higher = more cells survive
MK-8033 + Vorinostat = compound: Cn1cc(-c2cnc3ccc4ccc(CS(=O)(=O)NCc5ccccn5)cc4c(=O)c3c2)cn1 [MK-8033] + O=C(CCCCCCC(=O)Nc1ccccc1)NO [Vorinostat] (partner 1 µM)
Summary of the method: (§1)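 A single step with final 0.05% Triton X-100, 1% formaldehyde and 1 ug/ml Hoechst fixed the cells and stained nuclei 5 days after treatment. Lung cancer cell lines in 1536-well plates had been treated by pin tool the day after seeding with one drug alone or a fixed anchor-drug dose plus five library-drug doses (not always all listed) in √10 steps, and nuclei were counted on 4× images. Relative viability is the ratio of nuclei in treated wells to nuclei in vehicle wells, taken as the median of duplicate plates.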

Irinotecan + Tozasertib = compound: CCc1c2c(nc3ccc(OC(=O)N4CCC(N5CCCCC5)CC4)cc13)-c1cc3c(c(=O)n1C2)COC(=O)[C@]3(O)CC [Irinotecan] + Cc1cc(Nc2cc(N3CCN(C)CC3)nc(Sc3ccc(NC(=O)C4CC4)cc3)n2)n[nH]1 [Tozasertib] (partner 0.1 µM)
Summary of the method: as §1

MK-8033 + Crizotinib = compound: Cn1cc(-c2cnc3ccc4ccc(CS(=O)(=O)NCc5ccccn5)cc4c(=O)c3c2)cn1 [MK-8033] + C[C@@H](Oc1cc(-c2cnn(C3CCNCC3)c2)cnc1N)c1c(Cl)ccc(F)c1Cl [Crizotinib] (partner 1 µM)
Summary of the method: as §1

RU-SKI 43 + OSI-027 = compound: CC[C@@H](C)CNCC(=O)N1CCC2=C([C@@H]1COC3=CC=CC(=C3)C)C=CS2 [RU-SKI 43] + COc1cccc2cc(-c3nc([C@H]4CC[C@H](C(=O)O)CC4)n4ncnc(N)c34)[nH]c12 [OSI-027] (partner 0.5 µM)
Summary of the method: as §1

| Cell Line | relative viability (MK-8033 + Vorinostat; first compound 0.02 µM) | relative viability (MK-8033 + Vorinostat; first compound 0.06325 µM) | relative viability (MK-8033 + Vorinostat; first compound 0.2 µM) | relative viability (MK-8033 + Vorinostat; first compound 0.6325 µM) | relative viability (MK-8033 + Vorinostat; first compound 2 µM) | relative viability (Irinotecan + Tozasertib; first compound 0.6325 µM) | relative viability (Irinotecan + Tozasertib; first compound 2 µM) | relative viability (Irinotecan + Tozasertib; first compound 6.325 µM) | relative viability (Irinotecan + Tozasertib; first compound 20 µM) | relative viability (MK-8033 + Crizotinib; first compound 0.02 µM) | relative viability (MK-8033 + Crizotinib; first compound 0.06325 µM) | relative viability (MK-8033 + Crizotinib; first compound 0.2 µM) | relative viability (MK-8033 + Crizotinib; first compound 0.6325 µM) | relative viability (MK-8033 + Crizotinib; first compound 2 µM) | relative viability (RU-SKI 43 + OSI-027; first compound 0.1 µM) | relative viability (RU-SKI 43 + OSI-027; first compound 0.3162 µM) | relative viability (RU-SKI 43 + OSI-027; first compound 1 µM) | relative viability (RU-SKI 43 + OSI-027; first compound 3.162 µM) | relative viability (RU-SKI 43 + OSI-027; first compound 10 µM) |
| --- | --- | --- | --- | --- | --- | --- | --- | --- | --- | --- | --- | --- | --- | --- | --- | --- | --- | --- | --- |
| NCI-H2170 | 0.802 | 0.882 | 0.691 | 0.768 | 0.79 | 0.801 | 0.701 | 0.236 | 0.181 | 1.08 | 1.18 | 1.05 | 1.18 | 1.18 | 0.709 | 0.745 | 0.761 | 0.809 | 0.667 |
| NCI-H647 | 0.633 | 0.378 | 0.527 | 0.598 | 0.75 | 0.24 | 0.294 | 0.151 | 0.0868 | 1.03 | 0.891 | 0.959 | 0.919 | 0.928 | 0.647 | 0.864 | 0.755 | 0.918 | 0.707 |
| A-427 | 0.886 | 0.826 | 0.819 | 0.908 | 0.881 |  | 0.159 | 0.216 | 0.182 | 0.933 | 0.734 | 0.824 | 0.88 | 0.865 | 0.471 | 0.345 | 0.546 | 0.507 | 0.43 |
| HCC-366 | 0.392 | 0.313 | 0.253 | 0.329 | 0.324 | 0.0963 | 0.109 | 0.0553 | 0.0875 | 0.45 | 0.525 | 0.59 | 0.363 | 0.504 | 0.962 | 0.94 | 1.02 | 0.931 | 0.452 |
| CAL-12T | 0.797 | 0.709 | 0.81 | 0.775 | 0.673 |  | 0.419 | 0.322 | 0.197 | 0.62 | 0.608 | 0.646 | 0.693 | 0.474 | 0.612 | 0.447 | 0.721 | 0.911 | 0.543 |
